Laboratory results from US7695736B2, “Reconstitutable parenteral composition” (Pfizer Inc., priority 2001, dated 2010).

Columns and labels:
[1] = physchem; conditions: 20 °C, thermodynamic from solid
[2] = human pharmacokinetic study: blood plasma concentration of valdecoxib; type: in vivo
Experimental: Subjects drank 180 ml water one, two and three hours postdose.

[3] = tested on: patients requiring extraction of two ipsilateral impacted third molars; assay: placebo-controlled single-dose preemptive analgesia study, third molar extraction; type: in vivo, human
Experimental: Beginning at 30 minutes after closure of surgery, level of pain was assessed every two hours up to 24 hours, except that patients were not awakened for pain assessments. Pain was assessed by the patient on a 0-3 scale and on a chart representing a continuum from “no pain” to “worst pain”. Rescue medication was administered on demand by the patient. At the last scheduled assessment, or immediately prior to administration of rescue medication, the patient was asked to evaluate the effectiveness of the study medication to delay pain. Time to rescue medication (TRM) was analyzed using survival analysis techniques. The median time to event for each treatment group was calculated using the Kaplan-Meier product limit estimator, including the adjustment described by Miller (1981) in Survival Analysis, pp. 74-75. New York: John Wiley & Sons. Ninety five percent (95%) confidence intervals for the median time to event were calculated using the method of Simon & Lee (1982), Cancer Treat. Rep. 66, 37-42. […] Patients who dropped out for reasons other than administration of rescue medication were censored at the time they dropped out of the study.

[4] = target: COX-1 (Homo sapiens, UniProt P23219); conditions: in vitro; cited from earlier work
[5] = single preemptive intravenous dose 40 mg

Sequence of COX-1 (P23219 24-599): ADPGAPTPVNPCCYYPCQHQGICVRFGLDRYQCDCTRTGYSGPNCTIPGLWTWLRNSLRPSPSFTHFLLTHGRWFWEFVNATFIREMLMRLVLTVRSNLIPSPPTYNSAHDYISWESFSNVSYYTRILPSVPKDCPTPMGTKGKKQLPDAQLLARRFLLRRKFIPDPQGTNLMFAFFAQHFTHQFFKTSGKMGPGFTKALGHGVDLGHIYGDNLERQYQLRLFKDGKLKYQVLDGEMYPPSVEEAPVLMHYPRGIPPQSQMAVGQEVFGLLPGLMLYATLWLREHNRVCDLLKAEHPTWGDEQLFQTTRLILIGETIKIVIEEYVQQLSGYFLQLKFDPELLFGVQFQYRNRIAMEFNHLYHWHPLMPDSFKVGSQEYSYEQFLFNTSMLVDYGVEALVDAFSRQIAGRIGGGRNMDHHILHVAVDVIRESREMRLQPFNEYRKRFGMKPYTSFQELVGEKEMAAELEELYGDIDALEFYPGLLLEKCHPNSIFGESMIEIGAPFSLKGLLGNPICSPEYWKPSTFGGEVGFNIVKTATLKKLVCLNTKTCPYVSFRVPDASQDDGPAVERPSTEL

Row | solubility thermodynamic ([1]; pH 7.3, aqueous buffer) [mg/mL] | solubility thermodynamic ([1]; pH 7.8, aqueous buffer) [mg/mL] | solubility thermodynamic ([1]; pH 8.2, aqueous buffer) [mg/mL] | time at which maximum blood plasma concentration of valdecoxib was reached ([2]; human, 20 mg IV bolus vs 20 mg valdecoxib oral immediate-release tablet) | Structure (SMILES) | patients rating the study medication as good or excellent ([3]; 40 mg treatment group) [%] | patient's evaluation of effectiveness scores compared with placebo ([3]; each parecoxib treatment group) | proportion of patients taking rescue medication compared with placebo ([3]; parecoxib treatment groups 20, 40, 80 mg) | TRM compared with placebo ([3]; single doses 20 mg, 40 mg and 80 mg) | Patients taking rescue medication ([3]; single preemptive intravenous dose 20 mg) [%] | Median TRM (time to rescue medication) [3, 5] [h] | Patients taking rescue medication [3, 5] [%] | Patients taking rescue medication ([3]; single preemptive intravenous dose 80 mg) [%] | inhibitory activity against COX-1 [4] | conversion to valdecoxib after parenteral administration ([2]; human subject, parenteral)
1 | 1 | 18 | 220 | earlier | CCC(=O)NS(=O)(=O)c1ccc(-c2c(-c3ccccc3)noc2C)cc1 [parecoxib sodium] |  |  |  |  |  |  |  |  |  | 
2 |  |  |  |  | CCC(=O)NS(=O)(=O)c1ccc(-c2c(-c3ccccc3)noc2C)cc1 [Parecoxib, parecoxib] | 92 | significantly higher | significantly lower | significantly longer TRM than placebo | 78 | >24 | 48 | 59 | weak in vitro inhibitory activity | rapidly and completely converted to valdecoxib
3 |  |  |  |  | Cc1onc(-c2ccccc2)c1-c1ccc(S(N)(=O)=O)cc1 [valdecoxib] |  |  |  |  |  |  |  |  | weak inhibitor | 
